According to patent US8999293B2, “Animal model of anxiety and depression” (University of Mississippi, priority 2005, dated 2015):
Where two headings read alike, the source gives them in different places.

What was measured:
[1] = test system: isolated cockerels (Gallus gallus; W36); test: Chick anxiety-depression model, drug probe studies, 120 min isolation (Example 3); conditions: for ED50: Gallus gallus; for isolation-induced DVoc rate during the anxiety-like phase (first five min time block) / isolation-induced DVoc rate during the depression-like phase (30-120 min) / sleep onset latency (SOL) to index sedation: IM fifteen minutes prior to testing; for isolation-induced DVoc rate during the anxiety-like phase (first five min time block) / isolation-induced DVoc rate during the depression-like phase (30-120 min): vs vehicle/isolated; for isolation-induced DVoc rate during the anxiety-like phase (first five min time block): attenuation = anxiolytic effect; for isolation-induced DVoc rate during the depression-like phase (30-120 min): increase = antidepressant effect; for sleep onset latency (SOL) to index sedation: vs vehicle/isolated chicks
Procedure: Subjects and Housing Procedures. Cockerels (Gallus gallus; W36; Cal-Maine Foods, Inc.; Mendenhall, Miss.) were received one-day posthatch and housed in 34×57×40 cm stainless steel cages with 12-13 chicks per cage. Food (Purina Start and Grow, St. Louis, Mo.) and water were available ad libitum through one quart gravity-fed feeders (Murray MacMurray; Model 4BGFJ) and waterers (Murray MacMurray; Model 4YQW0). Room temperature was maintained at 29±1° C. and overhead illumination was maintained on a 12 hr light-dark cycle. Daily maintenance, which was conducted during the first three hr of the light cycle, involved refilling the waterer, refilling the feeder, and replacement of tray liners.
Apparatus. The testing apparatus consisted of a six-unit test apparatus containing Plexiglas viewing chambers (25×25×22 cm) placed in sound-attenuating enclosures. Each unit was illuminated and heated by a 25-W light bulb. Ventilation was provided by an eight centimeter diameter rotary fan (Commonwealth Model FP-108AX 51). Miniature video cameras (SuperCircuit Model PC60XP) mounted in the sound-attenuating enclosures at floor level and routed through a Multiplexor (SuperCircuit Model PC47MC) provided televised display of the chicks for behavioral observation. Distress vocalizations (DVocs) were recorded by microphones (Lafayette Instruments Model 3-675-001) mounted in the ceilings of the Plexiglas chambers and connected to digital sound-activating relays (Lafayette Instruments Model 63040A; settings: 75% sensitivity and 0.10 s delay) that triggered electromechanical counters (Lafayette Instruments Model 58004).
Drug Probes. All experiments were conducted between five- and seven days posthatch. The groups in each experiment formed a 1×5 factorial design with a hanging control condition (n=9-12). The two vehicle control groups constituted the social separation stress manipulation. This manipulation involved placing a chick in the Plexiglas test chamber either in isolation or with two social companions for a 120 min test observation period. All drug probes were tested in the isolation condition.
Vehicle or a drug was administered IM fifteen minutes prior to testing. Dependent measures that were collected during the test session were DVocs to index separation stress and sleep onset latency (SOL) to index sedation. DVocs were defined as the vocalizations that are picked up by the electromechanical counters. SOL was defined as the time in which a chick adopts a sleep-like posture with either its chest in full contact with the floor and its eyes closed or its legs in a wide posture, its head drooping, and its eyes closed. Following each six-chick test session, the animals were returned to their home cage. After all animals were tested, they were euthanized via CO^2 asphyxiation.
Statistical Analyses. In order to discretely analyze the drug effects in the anxiety-like state and the depression-like state, the raw DVoc data were converted to a rate per min score. The anxiety-like state DVoc rate consisted of the mean DVocs per min over the first five min of the test session. The depression-like state DVoc rate consisted of the mean DVocs per min from 30 min to 120 min. Following this conversion, the DVoc rates from the anxiety-like phase and depression-like phase were analyzed with a one-way ANOVA with Fisher's LSD post hoc analysis. Plasma IL-6 concentration data were analyzed using one-way ANOVA with Fisher's LSD post hoc analysis and independent sample t-tests.

[2] = test system: domestic fowl chicks; conditions: cited from earlier work; for detection of anxiolytic activity on separation-induced distress vocalizations: Feltenstein et al. 2004; for detection in the chick separation stress paradigm: Warnick et al. 2006, panic disorder vs generalized anxiety disorder drugs
[3] = test system: isolated cockerels (Gallus gallus, strain W-36); format: in vivo; conditions: isolated chicks vs vehicle-isolated, chlordiazepoxide 8 mg/kg
Description: Subjects. Cockerels (Gallus gallus, strain W-36; Cal-Maine Foods, Mendenhall, Miss., USA) were obtained 1 day posthatch and housed in stainless steel cages (34×57×40 cm) at a population density of 12 chicks per cage. Food (Purina Start and Grow, St. Louis, Mo., USA) and water were available ad libitum through a 1-quart gravity-fed feeders and waterers.
Apparatus. […] The units were illuminated using 25-W light bulbs and ventilated by an 8-cmdiameter rotary fan. Miniature video cameras mounted at floor level in the corner of the enclosures allowed for animal observation. Microphones that mounted at the ceiling of the Plexiglas chamber were connected to digital sound-activating relays, which activated electromechanical counters. A white noise generator provided room masking noise.
Procedure. Tests were conducted at either Day 4, 5, or 6 posthatch. Groups formed a single factorial design with a hanging control that included two vehicle-control groups in which chicks were tested in either an isolated or social condition, and two drug groups under the isolation condition. The vehicle was 0.9% physiological saline and the drug probes were chlordiazepoxide (8 mg/kg) and imipramine (15 mg/kg). Sample sizes were n=12 per cell. […]
Statistics. Data were analyzed using one- and two-way repeated measures analysis of variance (ANOVA) and one-way simple effects ANOVA. […]

[4] = test system: Black Australorp chicks (stress-vulnerable); test: Chick anxiety-depression model, 90 min isolation, Black Australorp strain (Example 5); conditions: data not shown
[5] = read-out: ED50 AD Effect (40-60 min time block)
[6] = read-out: ED50 AD Effect (60-80 min time block)
[7] = read-out: ED50 AD Effect (80-100 min time block)
[8] = read-out: ED50 AD Effect (100-120 min time block)

SMILES: CNCCC(Oc1ccc(C(F)(F)F)cc1)c1ccccc1 (centres unmarked) [Fluoxetine, fluoxetine]
- ED50 [1, 5]: 16.5 mg/kg
- ED50 [1, 6]: 13.3 mg/kg
- ED50 [1, 7]: 14 mg/kg
- ED50 [1, 8]: 14 mg/kg
- isolation-induced DVoc rate during the anxiety-like phase (first five min time block) [1]: none of the doses of fluoxetine attenuated DVocs
- isolation-induced DVoc rate during the depression-like phase (30-120 min) [1]: significant exacerbation of the DVoc rate in the 1 mg/kg, 10 mg/kg and 20 mg/kg doses

SMILES: CN(C)CCCN1c2ccccc2CCc2ccccc21 [Imipramine, imipramine]
- ED50 [1, 5]: 10 mg/kg
- ED50 [1, 6]: 8.5 mg/kg
- ED50 [1, 7]: 9.1 mg/kg
- ED50 [1, 8]: 7.6 mg/kg
- isolation-induced DVoc rate during the anxiety-like phase (first five min time block) [1]: significant attenuation of the separation-induced DVoc rate at the 10 mg/kg and 15 mg/kg doses
- isolation-induced DVoc rate during the depression-like phase (30-120 min) [1]: significant exacerbation of the DVoc rate in the 1 mg/kg, 3 mg/kg and 15 mg/kg doses (p^s<0.005) and a marginally significant exacerbation in the 10 mg/kg dose condition
- detection of anxiolytic activity on separation-induced distress vocalizations [2]: successful detection
- detection in the chick separation stress paradigm [2]: selectively detected
- distress vocalizations (DVocs) at the first five minute time block ([3]; IP 15 minute before tests, imipramine 15 mg/kg): attenuated DVocs
- DVoc rates at the 20 minute block and beyond ([3]; imipramine 15 mg/kg IP): enhanced DVoc rates

SMILES: CNC1(c2ccccc2Cl)CCCCC1=O (centres unmarked) [Ketamine, ketamine]
- antidepressant activity, follow-up study with ketamine at lower doses ([4]; Black Australorps): failed to see antidepressant activity in either strain
- ataxia ([4]; highest dose tested, strain not specified): transient (5-10 min) ataxia

SMILES: CNCCCC12CCC(c3ccccc31)c1ccccc12 [Maprotiline, maprotiline]
- ED50 ([1]; read-out: ED50 AD Effect (20-40 min time block)): 17.2 mg/kg
- ED50 [1, 5]: 14 mg/kg
- ED50 [1, 6]: 14.9 mg/kg
- ED50 [1, 7]: 13.6 mg/kg
- ED50 [1, 8]: 14.6 mg/kg
- isolation-induced DVoc rate during the anxiety-like phase (first five min time block) [1]: significant attenuation of the separation-induced DVoc rate at the 20 mg/kg dose
- isolation-induced DVoc rate during the depression-like phase (30-120 min) [1]: the three lowest doses (2.5 mg/kg, 5 mg/kg, and 10 mg/kg) exacerbated DVocs

SMILES: Cc1nnc2n1-c1ccc(Cl)cc1C(c1ccccc1)=NC2 [alprazolam]
- detection in the chick separation stress paradigm [2]: selectively detected

SMILES: CC(N)Cc1ccccc1 (centres unmarked) [amphetamine]
- detection of anxiolytic activity on separation-induced distress vocalizations [2]: insensitive

SMILES: O=C1CC2(CCCC2)CC(=O)N1CCCCN1CCN(c2ncccn2)CC1 [buspirone]
- detection in the chick separation stress paradigm [2]: insensitive

SMILES: CNC1=Nc2ccc(Cl)cc2C(c2ccccc2)=[N+]([O-])C1 [chlordiazepoxide]
- sleep onset latency (SOL) to index sedation [1]: significant SOL reduction in the 10 mg/kg dose

SMILES: CN(C)CCCN1c2ccccc2Sc2ccc(Cl)cc21 [chlorpromazine]
- detection of anxiolytic activity on separation-induced distress vocalizations [2]: insensitive

SMILES: Clc1cccc(Cl)c1N=C1NCCN1 [clonidine]
- sleep onset latency (SOL) to index sedation [1]: significant SOL reduction in the 0.15 mg/kg and 0.20 mg/kg doses (p^s<0.05) and a marginally significant reduction in the 0.25 mg/kg dose
- isolation-induced DVoc rate during the anxiety-like phase (first five min time block) [1]: significant attenuation of the separation-induced DVoc rate at all doses
- isolation-induced DVoc rate during the depression-like phase (30-120 min) [1]: did not reveal a significant effect
- detection of anxiolytic activity on separation-induced distress vocalizations [2]: successful detection
- detection in the chick separation stress paradigm [2]: selectively detected

SMILES: O=C(CCCN1CCC(O)(c2ccc(Cl)cc2)CC1)c1ccc(F)cc1 [haloperidol]
- detection of anxiolytic activity on separation-induced distress vocalizations [2]: insensitive

SMILES: CCCC(C)(COC(N)=O)COC(N)=O [meprobamate]
- detection of anxiolytic activity on separation-induced distress vocalizations [2]: successful detection

SMILES: CCCC(C)C1(CC)C(=O)NC(=O)NC1=O (centres unmarked) [pentobarbital]
- detection of anxiolytic activity on separation-induced distress vocalizations [2]: successful detection

SMILES: NNCCc1ccccc1 [phenelzine]
- detection in the chick separation stress paradigm [2]: selectively detected

SMILES: CN1[C@@H]2C[C@@H](OC(=O)[C@H](CO)c3ccccc3)C[C@H]1[C@@H]1O[C@@H]12 [scopolamine]
- detection of anxiolytic activity on separation-induced distress vocalizations [2]: insensitive

SMILES: O=c1n(CCCN2CCN(c3cccc(Cl)c3)CC2)nc2ccccn12 [trazodone]
- detection in the chick separation stress paradigm [2]: insensitive
